Patent US9169254B2, “Spiroimidazolone derivative” (Chugai Seiyaku Kabushiki Kaisha, priority 2009, dated 2015)

molecular target: T1, human PTH1 receptor (Homo sapiens, UniProt Q03431); assay: In vitro cAMP signal activity in HKRK-B7 cells (LLC-PK1 cells overexpressing the human PTH1 receptor); assay type: cell-based; conditions: HKRK-B7 cells; compound at 1×10^−3 M; cAMP produced as percentage of that produced by hPTH(1-34) at 100 nM
T1 sequence (Q03431 27-593): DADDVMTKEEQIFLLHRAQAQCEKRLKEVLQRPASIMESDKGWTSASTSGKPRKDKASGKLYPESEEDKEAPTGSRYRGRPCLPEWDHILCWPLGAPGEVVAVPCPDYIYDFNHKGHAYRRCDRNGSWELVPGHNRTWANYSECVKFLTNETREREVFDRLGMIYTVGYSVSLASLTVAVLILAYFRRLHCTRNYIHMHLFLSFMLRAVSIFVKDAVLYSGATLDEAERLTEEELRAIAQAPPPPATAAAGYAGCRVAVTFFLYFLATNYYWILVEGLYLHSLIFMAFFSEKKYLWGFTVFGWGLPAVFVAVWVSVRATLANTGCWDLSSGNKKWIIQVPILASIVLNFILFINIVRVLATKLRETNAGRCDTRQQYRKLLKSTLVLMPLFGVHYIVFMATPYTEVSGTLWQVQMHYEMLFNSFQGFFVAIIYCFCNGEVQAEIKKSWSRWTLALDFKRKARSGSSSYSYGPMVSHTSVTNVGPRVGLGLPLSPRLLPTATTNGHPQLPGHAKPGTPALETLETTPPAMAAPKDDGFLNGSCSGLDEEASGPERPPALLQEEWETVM

| SMILES | cAMP production activity (%) |
| --- | --- |
| Cc1cc(OC[C@H](O)CO)cc(C)c1/C=C/S(=O)(=O)N1CCC2(CC1)N=C(c1ccc(F)c(C(F)(F)F)c1)NC2=O [Compound 242, 8-{(E)-2-[4-((R)-2,3-Dihydroxy-propoxy)-2,6-dimethyl-phenyl]-ethenesulfonyl}-2-(4-fluoro-3-trifluoromethyl-phenyl)-1,3,8-triaza-spiro[4.5]dec-1-en-4-one] | 75% |
| Cc1cc(C(=O)N(C)C)ccc1CCS(=O)(=O)N1CCC2(CC1)N=C(c1ccc(Cl)c(Cl)c1)NC2=O [Compound 98, 4-{2-[2-(3,4-dichloro-phenyl)-4-oxo-1,3,8-triaza-spiro[4.5]dec-1-ene-8-sulfonyl]-ethyl}-3,N,N-trimethyl-benzamide] | 75% |
| Cc1cc(OC[C@H](O)[C@@H](O)CO)cc(C)c1/C=C/S(=O)(=O)N1CCC2(CC1)N=C(C1CCC(CCC(F)(F)F)CC1)NC2=O (stereo partly drawn) [Compound 705, 8-{(E)-2-[2,6-dimethyl-4-((2S,3S)-2,3,4-trihydroxy-butoxy)-phenyl]-ethenesulfonyl}-2-[4-(3,3,3-trifluoro-propyl)-cyclohexyl]-1,3,8-triaza-spiro[4.5]dec-1-en-4-one] | 76% |
| CN(C)C(=O)c1ccc(/C=C/S(=O)(=O)N2CCC3(CC2)N=C(c2cccc(OC(F)(F)F)c2)NC3=O)c(F)c1 [Compound 233, 3-fluoro-N,N-dimethyl-4-{(E)-2-[4-oxo-2-(3-trifluoromethoxy-phenyl)-1,3,8-triaza-spiro[4.5]dec-1-ene-8-sulfonyl]-vinyl}-benzamide] | 13% |
| Cc1cc(NC[C@H](O)CO)ccc1CCS(=O)(=O)N1CCC2(CC1)N=C(c1ccc(Cl)cc1)NC2=O [Compound 158, 2-(4-chloro-phenyl)-8-{2-[4-((S)-2,3-dihydroxy-propylamino)-2-methyl-phenyl]-ethanesulfonyl}-1,3,8-triaza-spiro[4.5]dec-1-en-4-one] | 62% |
| Cc1cc(C(=O)N2CC(O)C2)cc(C)c1/C=C/S(=O)(=O)N1CCC2(CC1)N=C(c1cccc(C(F)(F)F)c1)NC2=O [Compound 385, 8-{(E)-2-[4-(3-hydroxy-azetidine-1-carbonyl)-2,6-dimethyl-phenyl]-ethenesulfonyl}-2-(3-trifluoromethyl-phenyl)-1,3,8-triaza-spiro[4.5]dec-1-en-4-one] | 94% |
| Cc1cnc(C2=NC3(CCN(S(=O)(=O)CCc4ccc(C(=O)N(C)C)cc4C)CC3)C(=O)N2)cn1 [Compound 120, 3,N,N-trimethyl-4-{2-[2-(5-methyl-pyrazin-2-yl)-4-oxo-1,3,8-triaza-spiro[4.5]dec-1-ene-8-sulfonyl]-ethyl}-benzamide] | 3.1% |
| Cc1cc(CN2C(=O)CNC2=O)cc(C)c1/C=C/S(=O)(=O)N1CCC2(CC1)N=C(C1CCC(C)CC1)NC2=O (centres unmarked) [Compound 518, 3-(3,5-dimethyl-4-{(E)-2-[2-(4-methyl-cyclohexyl)-4-oxo-1,3,8-triaza-spiro[4.5]dec-1-ene-8-sulfonyl]-vinyl}-benzyl)-imidazolidine-2,4-dione] | 68% |
| Cc1cc(N2CCOCC2=O)cc(C)c1/C=C/S(=O)(=O)N1CCC2(CC1)N=C(C1CCC(C)CC1)NC2=O (centres unmarked) [Compound 515, 8-{(E)-2-[2,6-dimethyl-4-(3-oxo-morpholin-4-yl)-phenyl]-ethenesulfonyl}-2-(4-methyl-cyclohexyl)-1,3,8-triaza-spiro[4.5]dec-1-en-4-one] | 113% |
| O=C1NC(C2CCCCC2)=NC12CCN(S(=O)(=O)/C=C/c1cccc3[nH]ccc13)CC2 [Compound 182, 2-cyclohexyl-8-[(E)-2-(1H-indol-4-yl)-ethenesulfonyl]-1,3,8-triaza-spiro[4.5]dec-1-en-4-one] | 38% |

More lines, now with the values ahead:

| cAMP production activity (%) | SMILES |
| --- | --- |
| 57% | Cc1cc(N2CCC(=O)NC2=O)cc(C)c1CCS(=O)(=O)N1CCC2(CC1)N=C(C1CCC(C)CC1)NC2=O (centres unmarked) [Compound 786, 1-(3,5-dimethyl-4-{2-[2-(4-methyl-cyclohexyl)-4-oxo-1,3,8-triaza-spiro[4.5]dec-1-ene-8-sulfonyl]-ethyl}-phenyl)-dihydro-pyrimidine-2,4-dione] |
| 91% | Cc1cc(C2=NC3(CCN(S(=O)(=O)/C=C/c4c(C)cc(C(=O)N5CCC(O)(CF)CC5)cc4C)CC3)C(=O)N2)c(C)cc1F [Compound 1239, 2-(4-Fluoro-2,5-dimethyl-phenyl)-8-{(E)-2-[4-(4-fluoromethyl-4-hydroxy-piperidine-1-carbonyl)-2,6-dimethyl-phenyl]-ethenesulfonyl}-1,3,8-triaza-spiro[4.5]dec-1-en-4-one] |
| 90% | [2H]C([2H])([2H])C([2H])(Oc1cc(C2=NC3(CCN(S(=O)(=O)/C=C/c4c(C)cc(C(=O)N5CCC(C)(O)CC5)cc4C)CC3)C(=O)N2)ccc1F)C([2H])([2H])[2H] [Compound 1225, 2-(4-fluoro-3-[1,2,2,2,2,2,2-^2H7]isopropoxy-phenyl)-8-{(E)-2-[4-(4-hydroxy-4-methyl-piperidine-1-carbonyl)-2,6-dimethyl-phenyl]-ethenesulfonyl}-1,3,8-triaza-spiro[4.5]dec-1-en-4-one] |
| 95% | Cc1cc(C2=NC3(CCN(S(=O)(=O)CCc4c(C)cc(C(=O)N5CCC(O)(CF)CC5)cc4C)CC3)C(=O)N2)ccc1C(F)(F)F [Compound 1277, 8-{2-[4-(4-fluoromethyl-4-hydroxy-piperidine-1-carbonyl)-2,6-dimethyl-phenyl]-ethanesulfonyl}-2-(3-methyl-4-trifluoromethyl-phenyl)-1,3,8-triaza-spiro[4.5]dec-1-en-4-one] |
| 16% | Cc1cc(C(=O)N2CC(F)C2)cc(C)c1/C=C/S(=O)(=O)N1CCC2(CC1)N=C(c1cccc(OC(F)(F)F)c1)NC2=O [Compound 963, 8-{(E)-2-[4-(3-Fluoro-azetidine-1-carbonyl)-2,6-dimethyl-phenyl]-ethenesulfonyl}-2-(3-trifluoromethoxy-phenyl)-1,3,8-triaza-spiro[4.5]dec-1-en-4-one] |
| 63% | Cc1cc(N2CCNCC2=O)ccc1CCS(=O)(=O)N1CCC2(CC1)N=C(C1CCC(C)CC1)NC2=O (centres unmarked) [Compound 870, 2-(4-methyl-cyclohexyl)-8-{2-[2-methyl-4-(2-oxo-piperazin-1-yl)-phenyl]-ethanesulfonyl}-1,3,8-triaza-spiro[4.5]dec-1-en-4-one] |
| 39% | CC(C)N(CCNC(=O)Cc1ccc(/C=C/S(=O)(=O)N2CCC3(CC2)N=C(C2CCCCC2)NC3=O)cc1)C(C)C [Compound 571, 2-{4-[(E)-2-(2-cyclohexyl-4-oxo-1,3,8-triaza-spiro[4.5]dec-1-ene-8-sulfonyl)-vinyl]-phenyl}-N-(2-diisopropylamino-ethyl)-acetamide] |
| 70% | Cc1cc(CN2C(=O)NC(C)(C)C2=O)cc(C)c1CCS(=O)(=O)N1CCC2(CC1)N=C(C1CCC(CCC(F)(F)F)CC1)NC2=O (centres unmarked) [Compound 775, 3-[3,5-dimethyl-4-(2-{4-oxo-2-[4-(3,3,3-trifluoro-propyl)-cyclohexyl]-1,3,8-triaza-spiro[4.5]dec-1-ene-8-sulfonyl}-ethyl)-benzyl]-5,5-dimethyl-imidazolidine-2,4-dione] |
| 128% | CCCCCc1ccc(C2=NC3(CCN(S(=O)(=O)CCc4c(C)cc(N(C)C(N)=O)cc4C)CC3)C(=O)N2)cc1OC [Compound 1354, 1-(4-{2-[2-(3-methoxy-4-pentyl-phenyl)-4-oxo-1,3,8-triaza-spiro[4.5]dec-1-ene-8-sulfonyl]-ethyl}-3,5-dimethyl-phenyl)-1-methyl-urea] |
| 75% | [2H]C([2H])([2H])C([2H])([2H])Oc1ccc(C2=NC3(CCN(S(=O)(=O)/C=C/c4c(C)cc(C(=O)N5CCC(C)(O)CC5)cc4C)CC3)C(=O)N2)cc1C(F)(F)F [Compound 1221, 2-(4-[1,1,2,2,2-^2H5]ethoxy-3-trifluoromethyl-phenyl)-8-{(E)-2-[4-(4-hydroxy-4-methyl-piperidine-1-carbonyl)-2,6-dimethyl-phenyl]-ethenesulfonyl}-1,3,8-triaza-spiro[4.5]dec-1-en-4-one] |
| 92% | CC(=O)N(C)Cc1cc(C)c(CCS(=O)(=O)N2CCC3(CC2)N=C(C2CCC(C)CC2)NC3=O)c(C)c1 (centres unmarked) [Compound 785, N-(3,5-dimethyl-4-{2-[2-(4-methyl-cyclohexyl)-4-oxo-1,3,8-triaza-spiro[4.5]dec-1-ene-8-sulfonyl]-ethyl}-benzyl)-N-methyl-acetamide] |
| 48% | Cc1cc2ccc1CCS(=O)(=O)N1CCC3(CC1)N=C(NC3=O)c1cc(cc(C(F)(F)F)c1)OCC/C=C/CCCCCCN(C)C2=O [Compound 1416] |
| 68% | Cc1cc(S(=O)(=O)NCC(N)=O)ccc1CCS(=O)(=O)N1CCC2(CC1)N=C(c1cccc(OC(F)(F)F)c1)NC2=O [Compound 675, 2-(3-Methyl-4-{2-[4-oxo-2-(3-trifluoromethoxy-phenyl)-1,3,8-triaza-spiro[4.5]dec-1-ene-8-sulfonyl]-ethyl}-benzenesulfonylamino)-acetamide] |
